Patent US6602664B2 (priority 1998, dated 2003)

Columns and labels:
HIV = conditions: U.S. Pat. No. 4,916,122; cited from earlier work
[1] = U.S. Pat. No. 4,916,122; cited from earlier work
mutant strains of HIV-1 = experiment: microbe, parasite or virus in culture; format: cell-based; conditions: for EC50 / Slope: human PBM cells
Protocol: Cells and viruses. […] Antimicrobial Agents Chemother 1992;36(11): 2423-2431.
Cell pellets were washed, centrifuged, lysed and the proviral DNA extracted as previously described. Cytotoxicity of the compounds was determined using the Promega Cell Titer 96 dye uptake assay (Madison, Wis.) in 1-2 day PHA-stimulated PBM cells after 5 days in culture. The median effective concentration (EC50) and inhibitory concentration (IC50) were derived from the computer-generated median effect plot of the dose-effect data, as described previously. […]
The mutant viruses tested are as follows: xxBRU Pitt (wild type HIV-1; the backbone used to prepare the other site directed mutagens); M184V (methionine to valine change at codon 184); K65R (lysine to arginine change at codon 65); T215Y (threonine to tyrosine change at codon 215); M184V/T215Y (virus with both mutations); 215/41 (virus with two mutations (threonine to tyrosine change at codon 215) and M4 1L (methionine to leucine change at codon 41)); 4X AZT (virus with four mutations associated with AZT therapy); D67N (aspartic acid to asparagine change at codon 67); K70R lysine to arginine change at codon 70); T215Y (defined as above); K219Q (lysine to glutamine change at codon 219); 964 pre (virus from a patient before they were on AZT therapy, and thus AZT sensitive); and 964 post (virus taken from the same patient after they were on AZT therapy, and thus is AZT resistant).

[N-]=[N+]=N[C@H]1C[C@H](n2ccc(=O)[nH]c2=O)O[C@@H]1CO [CS-87, 3′-Azido-2′,3′-dideoxyuridine]
anti-HIV activity (HIV): significant anti-HIV activity
toxicity compared with AZT [1]: lower toxicity than AZT
FI^50 (fold increase EC50) (mutant strains of HIV-1): 87
EC50 (mutant strains of HIV-1; 4X AZT Pitt.): 17000 nM
Slope (mutant strains of HIV-1; 4X AZT Pitt.): 0.54
EC50 (mutant strains of HIV-1; 215/4I Pitt.): 19100 nM
Slope (mutant strains of HIV-1; 215/4I Pitt.): 0.95
GFI^90 (fold increase EC90) (mutant strains of HIV-1; AZT-Post (964 post)): 14
EC50 (mutant strains of HIV-1; AZT-Post (964 post)): 63000 nM
Slope (mutant strains of HIV-1; AZT-Post (964 post)): 1.64
EC50 (mutant strains of HIV-1; AZT-Sen. (964 pre)): 11100 nM
Slope (mutant strains of HIV-1; AZT-Sen. (964 pre)): 0.65 ± 0.08
sensitivity of AZT-exposed virus (mutant strains of HIV-1; AZT-exposed virus): deceased sensitivity
EC50 (mutant strains of HIV-1; HIV-1/LAI): 4700 nM
Slope (mutant strains of HIV-1; HIV-1/LAI): 0.70
EC50 (mutant strains of HIV-1; Human immunodeficiency virus 1, PBMC, 4X AZT Pitt.): 300 nM
EC50 (mutant strains of HIV-1; Human immunodeficiency virus 1, PBMC, 215/4I Pitt.): 2100 nM
EC50 (mutant strains of HIV-1; Human immunodeficiency virus 1, PBMC, AZT-Post (964 post)): 16500 nM
EC50 (mutant strains of HIV-1; Human immunodeficiency virus 1, PBMC, AZT-Sen. (964 pre)): 400 nM
EC50 (mutant strains of HIV-1; Human immunodeficiency virus 1, PBMC, HIV-1/LAI): 200 nM
EC50 (mutant strains of HIV-1; Human immunodeficiency virus 1, PBMC, K65R Pitt.): 1100 nM
EC50 (mutant strains of HIV-1; Human immunodeficiency virus 1, PBMC, L74V Pitt.): 600 nM
EC50 (mutant strains of HIV-1; Human immunodeficiency virus 1, PBMC, M184V Pitt.): 600 nM
EC50 (mutant strains of HIV-1; Human immunodeficiency virus 1, PBMC, M184V/T215Y Pitt.): 1100 nM
EC50 (mutant strains of HIV-1; Human immunodeficiency virus 1, PBMC, T215Y Pitt.): 300 nM
EC50 (mutant strains of HIV-1; Human immunodeficiency virus 1, PBMC, xxBRU Pitt. (wild type)): 1100 nM
EC50 (mutant strains of HIV-1; K65R Pitt.): 12000 nM
Slope (mutant strains of HIV-1; K65R Pitt.): 0.92 ± 0.07
EC50 (mutant strains of HIV-1; L74V Pitt.): 3800 nM
Slope (mutant strains of HIV-1; L74V Pitt.): 1.18 ± 0.10
EC50 (mutant strains of HIV-1; M184V Pitt.): 2400 nM
Slope (mutant strains of HIV-1; M184V Pitt.): 1.55
EC50 (mutant strains of HIV-1; M184V/T215Y Pitt.): 5900 nM
Slope (mutant strains of HIV-1; M184V/T215Y Pitt.): 1.40
EC50 (mutant strains of HIV-1; T215Y Pitt.): 2700 nM
Slope (mutant strains of HIV-1; T215Y Pitt.): 1.00 ± 0.11
sensitivity of site directed mutant viruses (mutant strains of HIV-1; mutations at other than the 70 codon in the RT region): remain sensitive
EC50 (mutant strains of HIV-1; xxBRU Pitt. (wild type)): 7300 nM
Slope (mutant strains of HIV-1; xxBRU Pitt. (wild type)): 1.16
